Literature values, collected in US6476071B1, “Correcting polymorphic metabolic dysfunction with (−)-hydroxycitric acid” (priority 2001, dated 2002).

Experiments:
rats = settings: after a three hour meal
animals = settings: 70% glucose diet, as long as 80 days

Structure (SMILES): O=C([O-])CC(O)(C(=O)[O-])C(O)C(=O)[O-].[Na+].[Na+].[Na+] (stereo not drawn) [trisodium salt of (−)-hydroxycitric acid]
- contents of the stomach, % of control (rats): 223 % of control
- contents of the stomach (rats; controls 884±145): 1973±154 dpm×10^3
- body weight after disappearance of appetite control (animals): maintained a reduced weight
